Laboratory results taken from PubChem BioAssay AID248 (DTP/NCI, 2004).
Toxic doses and inconclusive results are not listed. No stated cut-off is given here; in the data, active means T/C of 150% or more; inactive means T/C below 125%.

System: L1210 leukemia ip in BDF1 mice, survival T/C
Assay: NCI In Vivo Anticancer Drug Screen. Data for tumor model L1210 Leukemia (intraperitoneal) in B6D2F1 (BDF1) mice
Details: endpoint: mean survival time, higher = longer survival
Procedure, shortened: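 Ratio derived from survival: compound-dosed mice over vehicle-dosed mice, all bearing a transplantable tumor.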

[1] = dose: 50.0 mg/kg/injection, schedule: Q01DX009 (ip), vehicle: saline
[2] = dose: 100.0 mg/kg/injection, schedule: Q01DX009 (ip), vehicle: saline
[3] = dose: 100.0 mg/kg/injection, schedule: Q04DX003 (ip), vehicle: saline
[4] = dose: 200.0 mg/kg/injection, schedule: Q04DX003 (ip), vehicle: saline
[5] = dose: 100.0 mg/kg/injection, schedule: Q01DX001 (ip), vehicle: saline
[6] = dose: 200.0 mg/kg/injection, schedule: Q01DX001 (ip), vehicle: saline
[7] = dose: 400.0 mg/kg/injection, schedule: Q01DX001 (ip), vehicle: saline
[8] = dose: 100.0 mg/kg/injection, schedule: Q04DX003 (ip), vehicle: saline with Tween-80
[9] = dose: 200.0 mg/kg/injection, schedule: Q04DX003 (ip), vehicle: saline with Tween-80
[10] = dose: 400.0 mg/kg/injection, schedule: Q04DX003 (ip), vehicle: saline with Tween-80
[11] = dose: 100.0 mg/kg/injection, schedule: Q04DX003 (ip), vehicle: Klucel (hydroxypropylcellulose) (HPC)
[12] = dose: 200.0 mg/kg/injection, schedule: Q04DX003 (ip), vehicle: Klucel (hydroxypropylcellulose) (HPC)
[13] = dose: 400.0 mg/kg/injection, schedule: Q04DX003 (ip), vehicle: Klucel (hydroxypropylcellulose) (HPC)

Measured: T/C

O=C(OCCCOC(=O)c1cccc([N+](=O)[O-])c1)c1cccc([N+](=O)[O-])c1
inactive: dose: 100.0 mg/kg/injection, schedule: Q01DX001 (ip), vehicle: other 101 % of control | dose: 200.0 mg/kg/injection, schedule: Q01DX001 (ip), vehicle: other 98 % of control | dose: 400.0 mg/kg/injection, schedule: Q01DX001 (ip), vehicle: other 102 % of control

CCC(C)C(CCCN1CCOCC1)(CNC(=O)CN(CC)CC)c1cccc2ccccc12 (stereo not drawn)
inactive: dose: 25.0 mg/kg/injection, schedule: Q01DX009 (ip), vehicle: saline 94 % of control | [1] 97 % of control | [2] 91 % of control | [3] 102 % of control

C[Si](C)(O)CCl
inactive: dose: 75.0 mg/kg/injection, schedule: Q01DX001 (ip), vehicle: saline 102 % of control

CCCCC(C(=O)O)c1ccccc1 (stereo not drawn)
inactive: dose: 100.0 mg/kg/injection, schedule: Q04DX003 (ip), vehicle: saline sonified 100 % of control | dose: 200.0 mg/kg/injection, schedule: Q04DX003 (ip), vehicle: saline sonified 97 % of control | dose: 400.0 mg/kg/injection, schedule: Q04DX003 (ip), vehicle: saline sonified 100 % of control

O=[N+]([O-])c1ccc(N=Cc2ccccc2O)c(O)c1
inactive: dose: 100.0 mg/kg/injection, schedule: Q01DX001 (ip), vehicle: carboxymethylcellulose (CMC) 95 % of control | dose: 200.0 mg/kg/injection, schedule: Q01DX001 (ip), vehicle: carboxymethylcellulose (CMC) 104 % of control | dose: 400.0 mg/kg/injection, schedule: Q01DX001 (ip), vehicle: carboxymethylcellulose (CMC) 94 % of control

CN(CCC#N)CCC#N
inactive: [3] 109 % of control | [4] 94 % of control | dose: 400.0 mg/kg/injection, schedule: Q04DX003 (ip), vehicle: saline 101 % of control

NC1CCSCC1
inactive: [5] 104 % of control | [6] 96 % of control | [7] 96 % of control

CCCCCC(C)O[Si](C)c1cccc(C)c1 (stereo not drawn)
inactive: [8] 107 % of control | [9] 98 % of control | [10] 102 % of control

COc1cc(OC)c(N=Cc2ccc([N+](=O)[O-])s2)cc1Cl
inactive: [11] 101 % of control | [12] 101 % of control | [13] 95 % of control

C/C=C\C=N\N(C)C
inactive: [1] 110 % of control | [2] 106 % of control | [3] 102 % of control | [4] 97 % of control

Nc1c(C(F)(F)F)[nH]c(Cl)nc1=S
inactive: dose: 29.0 mg/kg/injection, schedule: Q01DX Z (ip), vehicle: methylcellulose (MC) 105 % of control | dose: 66.0 mg/kg/injection, schedule: Q01DX Z (ip), vehicle: methylcellulose (MC) 94 % of control

CNc1ccccc1C(N)=O
inactive: dose: 100.0 mg/kg/injection, schedule: Q01DX009 (ip), vehicle: Klucel (hydroxypropylcellulose) (HPC) 106 % of control | [11] 105 % of control | dose: 200.0 mg/kg/injection, schedule: Q01DX009 (ip), vehicle: Klucel (hydroxypropylcellulose) (HPC) 98 % of control | [12] 102 % of control | dose: 400.0 mg/kg/injection, schedule: Q01DX009 (ip), vehicle: Klucel (hydroxypropylcellulose) (HPC) 101 % of control | [13] 96 % of control

CC(C)(C)C(=O)c1ccc(-c2ccccc2)cc1
inactive: dose: 100.0 mg/kg/injection, schedule: Q04DX002 (ip), vehicle: other 91 % of control | dose: 200.0 mg/kg/injection, schedule: Q04DX002 (ip), vehicle: other 94 % of control | dose: 400.0 mg/kg/injection, schedule: Q04DX002 (ip), vehicle: other 94 % of control

CCOC(=O)N(OC(C)=O)P(=O)(N1CC1(C)C)N1CC1(C)C (stereo not drawn)
inactive: dose: 100.0 mg/kg/injection, schedule: Q04DX002 (ip), vehicle: saline 100 % of control | dose: 200.0 mg/kg/injection, schedule: Q04DX002 (ip), vehicle: saline 123 % of control

CC(C)C(C(=O)O)N(C)C(=O)c1cnc2ccccc2n1 (stereo not drawn)
inactive: [5] 105 % of control | [6] 109 % of control | [7] 103 % of control

COC(C)C1(C)NC(=O)NC1=O (stereo not drawn)
inactive: [5] 114 % of control | [6] 110 % of control | [7] 102 % of control

COP(=O)(OC)C1C2CC3C(C2)C31 (stereo not drawn)
inactive: dose: 100.0 mg/kg/injection, schedule: Q04DX003 (ip), vehicle: acetone 103 % of control | dose: 200.0 mg/kg/injection, schedule: Q04DX003 (ip), vehicle: acetone 97 % of control | dose: 400.0 mg/kg/injection, schedule: Q04DX003 (ip), vehicle: acetone 100 % of control

c1ccc2nc3c(cc2c1)[nH]c1ccccc13
inactive: dose: 100.0 mg/kg/injection, schedule: Q04DX002 (ip), vehicle: gum acacia 92 % of control | dose: 200.0 mg/kg/injection, schedule: Q04DX002 (ip), vehicle: gum acacia 106 % of control | dose: 400.0 mg/kg/injection, schedule: Q04DX002 (ip), vehicle: gum acacia 103 % of control

CC1=C(C)C2(C)C1(C)C1(C)NN=NC12c1ccccc1 (stereo not drawn)
inactive: [8] 95 % of control | [9] 91 % of control | [10] 101 % of control
